# Data reported in article PMC10941260 (RSC Advances, 2024).
# Like-named read-outs stand apart in the source and are kept apart here.
# Assays:
# AChE [1] = biological target: T1, AChE (Electrophorus electricus, UniProt O42275); experiment: Cholinesterase inhibition assay; type: biochemical, electric eels; conditions: for fold decrease in potency against AChE: compared to the most potent compound (a11)
# MAO-B [2] = biological target: T2, MAO-B (Mus musculus, UniProt Q8BW75); experiment: Monoamine oxidase B inhibition assay; type: biochemical, Mice; conditions: compared to the most potent compound (a12)
# T2 sequence (Q8BW75 2-520): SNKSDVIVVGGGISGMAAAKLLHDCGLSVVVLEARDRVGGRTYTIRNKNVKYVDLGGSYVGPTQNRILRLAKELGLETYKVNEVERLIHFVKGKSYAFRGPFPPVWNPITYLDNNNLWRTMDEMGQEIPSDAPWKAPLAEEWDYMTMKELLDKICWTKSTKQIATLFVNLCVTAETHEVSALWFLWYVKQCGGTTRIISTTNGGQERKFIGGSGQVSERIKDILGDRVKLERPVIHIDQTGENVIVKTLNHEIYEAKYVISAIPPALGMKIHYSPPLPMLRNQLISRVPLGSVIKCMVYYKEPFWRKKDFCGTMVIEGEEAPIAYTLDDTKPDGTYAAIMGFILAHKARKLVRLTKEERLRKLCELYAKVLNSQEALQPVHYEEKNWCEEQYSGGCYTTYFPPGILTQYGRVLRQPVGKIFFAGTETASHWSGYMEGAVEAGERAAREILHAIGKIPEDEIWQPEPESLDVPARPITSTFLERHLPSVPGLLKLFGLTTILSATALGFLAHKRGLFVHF
# MAO-A [3] = biological target: T3, MAO-A (Mus musculus, UniProt Q64133); experiment: Monoamine oxidase A inhibition assay; type: biochemical, Mice; conditions: compared to (a3)
# T3 sequence (Q64133 1-526): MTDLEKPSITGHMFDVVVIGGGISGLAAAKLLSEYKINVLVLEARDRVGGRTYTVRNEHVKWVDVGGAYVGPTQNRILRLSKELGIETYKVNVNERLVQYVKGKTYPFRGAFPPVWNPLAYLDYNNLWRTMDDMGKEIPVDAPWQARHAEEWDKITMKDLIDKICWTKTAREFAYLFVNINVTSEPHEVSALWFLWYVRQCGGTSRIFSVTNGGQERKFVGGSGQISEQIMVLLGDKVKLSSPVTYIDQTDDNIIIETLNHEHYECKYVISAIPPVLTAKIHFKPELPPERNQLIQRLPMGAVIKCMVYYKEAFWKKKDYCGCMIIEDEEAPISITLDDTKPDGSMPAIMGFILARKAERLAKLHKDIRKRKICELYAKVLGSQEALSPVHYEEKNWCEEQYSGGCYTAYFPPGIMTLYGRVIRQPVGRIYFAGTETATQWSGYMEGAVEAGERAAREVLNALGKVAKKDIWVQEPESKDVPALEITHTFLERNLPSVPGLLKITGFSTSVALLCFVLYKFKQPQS
# BChE [4] = biological target: T4, BChE (Equus caballus, UniProt P81908); experiment: Cholinesterase inhibition assay; type: biochemical, horse; conditions: for fold decrease in activity against BChE: compared to the di-methoxy substituted compound, printed as (a5)
# T4 sequence (P81908 whole entry): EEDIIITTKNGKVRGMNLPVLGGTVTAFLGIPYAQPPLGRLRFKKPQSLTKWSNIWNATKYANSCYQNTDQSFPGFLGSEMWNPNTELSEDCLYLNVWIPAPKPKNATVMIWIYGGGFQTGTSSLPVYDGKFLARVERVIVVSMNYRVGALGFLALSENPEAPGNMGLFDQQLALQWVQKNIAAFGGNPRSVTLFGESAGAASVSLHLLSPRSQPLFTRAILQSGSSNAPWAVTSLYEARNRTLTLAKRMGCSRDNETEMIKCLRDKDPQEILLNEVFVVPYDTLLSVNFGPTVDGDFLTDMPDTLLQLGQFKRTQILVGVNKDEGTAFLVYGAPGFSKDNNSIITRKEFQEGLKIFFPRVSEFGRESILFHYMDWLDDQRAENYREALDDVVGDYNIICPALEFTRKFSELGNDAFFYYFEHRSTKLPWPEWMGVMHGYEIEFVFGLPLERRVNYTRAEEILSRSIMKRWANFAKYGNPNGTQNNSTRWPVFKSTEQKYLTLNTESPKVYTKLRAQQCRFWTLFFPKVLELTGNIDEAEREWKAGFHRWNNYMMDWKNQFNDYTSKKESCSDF
# BChE [5] = biological target: T4, BChE; experiment: Enzyme kinetic study; type: biochemical; conditions: Lineweaver-Burk plot, substrate BTCII
# MAO-B [6] = experiment: Enzyme kinetic study; type: biochemical; conditions: Lineweaver-Burk plot, substrate p-tyramine
# AChE [7] = biological target: T1, AChE; experiment: Enzyme kinetic study; type: biochemical; conditions: Lineweaver-Burk plot, substrate ATCII
# MAO-A [8] = experiment: Enzyme kinetic study; type: biochemical; conditions: Lineweaver-Burk plot, substrate p-tyramine
# [9] = read-out: IC50 BChE, N/A = Not active (footnote b)
# T1 sequence (O42275 24-633): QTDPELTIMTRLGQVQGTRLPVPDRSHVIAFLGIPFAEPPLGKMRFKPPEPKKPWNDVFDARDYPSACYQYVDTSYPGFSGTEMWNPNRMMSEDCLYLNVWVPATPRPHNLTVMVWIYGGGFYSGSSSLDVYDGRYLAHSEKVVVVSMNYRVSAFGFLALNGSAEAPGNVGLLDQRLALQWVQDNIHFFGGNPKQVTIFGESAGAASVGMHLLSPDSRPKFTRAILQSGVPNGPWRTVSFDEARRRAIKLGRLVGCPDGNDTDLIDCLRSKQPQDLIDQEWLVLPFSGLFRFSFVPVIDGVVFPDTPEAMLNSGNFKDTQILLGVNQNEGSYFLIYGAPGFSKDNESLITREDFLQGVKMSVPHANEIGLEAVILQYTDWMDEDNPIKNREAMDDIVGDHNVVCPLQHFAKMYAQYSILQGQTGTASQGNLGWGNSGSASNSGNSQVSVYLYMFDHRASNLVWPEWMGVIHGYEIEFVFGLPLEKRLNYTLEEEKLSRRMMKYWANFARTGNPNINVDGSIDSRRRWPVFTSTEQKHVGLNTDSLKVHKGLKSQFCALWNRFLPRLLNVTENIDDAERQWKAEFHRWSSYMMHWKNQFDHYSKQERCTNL
compound,measurement,setting,value
"O=S(=O)(NCc1ccc(Cl)cc1)c1cccc2cccnc12 [a4, N-(4-Chlorobenzyl)quinoline-8-sulfonamide]",IC50,AChE [1],2.18 ± 1.17 µM
same,fold decrease in potency against AChE,AChE [1],~4 fold
"N-(2,6-Difluorophenyl)quinoline-8-sulfonamide [a3]",fold reduction in potency against MAO-B,MAO-B [2],4 fold
same,fold decrease in potency against AChE,AChE [1],~3 fold
same,IC50,AChE [1]; read-out: IC50 AChE,1.01 ± 0.59 µM
N-(2-Fluorobenzyl)quinoline-8-sulfonamide [a13],fold reduction in potency against MAO-B,MAO-B [2],3 fold
same,fold decrease in potency against AChE,AChE [1],3 fold
same,IC50,AChE [1]; read-out: IC50 AChE,1.65 ± 0.97 µM
same,fold decrease in activity against MAO-A,MAO-A [3],2 fold
"O=S(=O)(NCc1cc(F)cc(C(F)(F)F)c1)c1cccc2cccnc12 [a14, N-(3-Fluoro-5-(trifluoromethyl)benzyl)quinoline-8-sulfonamide]",IC50,AChE [1]; read-out: IC50 AChE,3.06 ± 0.77 µM
same,IC50,BChE [4]; [9],1.18 ± 0.57 µM
"O=S(=O)(NCc1ccc(Cl)cc1Cl)c1cccc2cccnc12 [a15, N-(2,4-Dichlorobenzyl)-8-quinolinesulfonamide]",IC50,AChE [1],1.4 ± 0.54 µM
same,fold decrease in potency against AChE,AChE [1],~2.5 fold
"O=S(=O)(Nc1ccc(I)cc1)c1cccc2cccnc12 [a8, N-(4-Iodophenyl)quinoline-8-sulfonamide]",IC50,AChE [1],1.15 ± 0.72 µM
same,fold decrease in potency against AChE,AChE [1],~2 fold
"N-(3,4-Dimethoxybenzyl)quinoline-8-sulfonamide [a6]",fold decrease in potency against AChE,AChE [1],2 fold
same,IC50,AChE [1]; read-out: IC50 AChE,1.11 ± 0.47 µM
same,IC50,BChE [4]; [9],1.1 ± 0.89 µM
same,mode of inhibition toward BChE,BChE [5],competitive inhibition
"N#Cc1ccc(NS(=O)(=O)c2cccc3cccnc23)cc1 [a9, N-(4-Cyanophenyl)quinoline-8-sulfonamide]",IC50,AChE [1],3.78 ± 0.92 µM
same,fold decrease in potency against AChE,AChE [1],7 fold
"Cc1ccc(F)c(CNS(=O)(=O)c2cccc3cccnc23)c1 [a2, N-(2-Fluoro-5-methylphenzyl)quinoline-8-sulfonamide]",fold reduction in potency against MAO-B,MAO-B [2],4 fold
same,fold decrease in potency against AChE,AChE [1],~3 fold
same,IC50,AChE [1]; read-out: IC50 AChE,2.58 ± 0.97 µM
same,fold decrease in activity against MAO-A,MAO-A [3],4 fold
"N-(2,3-Dihydro-1H-benzo[d]imidazole-2-yl)quinoline-8-sulfonamide [a7]",fold reduction in potency against MAO-B,MAO-B [2],2 fold
same,IC50,AChE [1]; read-out: IC50 AChE,1.73 ± 0.87 µM
N-(4-Florobenzyl)-8-quinolinesulfonamide [a12],IC50,AChE [1]; read-out: IC50 AChE,2.65 ± 0.97 µM
same,IC50,BChE [4]; [9],1.16 ± 0.77 µM
same,mode of inhibition toward MAO-B,MAO-B [6],competitive inhibition
same,fold decrease in activity against MAO-A,MAO-A [3],2 fold
"COc1ccc(CNS(=O)(=O)c2cccc3cccnc23)cc1 [a18, N-(4-Methoxybenzyl)-8-quinolinesulfonamide]",IC50,AChE [1],1.01 ± 0.61 µM
same,fold decrease in potency against AChE,AChE [1],2 fold
same,IC50,BChE [4],2.78 ± 0.92 µM
same,fold decrease in activity against BChE,BChE [4],2 fold
"O=S(=O)(Nc1cccc(I)c1)c1cccc2cccnc12 [a1, N-(3-Iodophenyl)quinoline-8-sulfonamide]",IC50,AChE [1],1.11 ± 0.57 µM
same,fold decrease in potency against AChE,AChE [1],~2 fold
N-(2-Hydroxyphenyl)quinoline-8-sulfonamide [a11],fold reduction in potency against MAO-B,MAO-B [2],2 fold
same,IC50,AChE [1]; read-out: IC50 AChE,0.58 ± 0.05 µM
same,mode of inhibition toward AChE,AChE [7],competitive inhibition
"O=S(=O)(NCC1CCCCC1)c1cccc2cccnc12 [a10, N-(Cyclohexylmethyl)quinoline-8-sulfonamide]",IC50,AChE [1],1.36 ± 0.77 µM
"O=S(=O)(NCc1ccccc1Cl)c1cccc2cccnc12 [a16, N-(2-Chlorobenzyl)-8-quinolinesulfonamide]",IC50,AChE [1],1.92 ± 0.87 µM
same,fold decrease in potency against AChE,AChE [1],~4 fold
"O=S(=O)(NCc1cccc(Cl)c1)c1cccc2cccnc12 [a5, N-(3-Chlorobenzyl)quinoline-8-sulfonamide]",IC50,AChE [1],1.95 ± 1.07 µM
same,fold decrease in potency against AChE,AChE [1],~4 fold
same,IC50,BChE [4],2.84 ± 1.07 µM
same,fold decrease in activity against BChE,BChE [4],~2 fold
same,mode of inhibition toward MAO-A,MAO-A [8],competitive inhibition
